Entries after “also recorded” stand apart in the source; their conditions may differ.
Assays:
[1] = molecular target: efflux transporter P-glycoprotein (P-gp) (Homo sapiens, UniProt P08183); assay: Elagolix as inhibitor and substrate of P-gp
Description: Elagolix is an inhibitor of efflux transporter P-glycoprotein (P-gp) at 200 mg BID or higher, such as 300 mg BID or 400 mg QD or 600 mg QD. Co-administration with ELAGOLIX 200 mg BID may increase plasma concentration of drugs that are substrates of P-gp.
Elagolix is a substrate of CYP3A, P-gp, and organic anion transporting polypeptide (OATP)1B1. Clinically meaningful interactions are not expected when elagolix is co-administered with drugs that inhibit CYP3A or P-gp.

[2] = Drug interaction studies: elagolix in the presence of co-administered drug; type: in vivo, human; details: for AUC Ratio (co-administration vs elagolix alone) / Cmax Ratio (co-administration vs elagolix alone): elagolix 150 mg single dose
Description: Drug interaction studies were performed with elagolix and other drugs that are likely to be co-administered and with drugs commonly used as probes for pharmacokinetic interactions.

[3] = Pharmacokinetic properties of elagolix in healthy subjects; details: human, in vivo
[4] = Lactation study in rats (elagolix in pup plasma); type: in vivo, rat
Description: Pregnant rats were given diet containing elagolix throughout the gestation and lactation periods to achieve a daily elagolix dose of 400 mg/kg. During nursing the dams and litters were divided into restricted feeding and non-restricted groups to determine whether elagolix was secreted in the mother's milk. […] In pups of the non-restricted feeding group, elagolix plasma concentrations were measurable and approximately 1% of the mother's plasma concentrations.

[5] = Pharmacokinetics in hepatic impairment; type: in vivo, human
From the text: Elagolix exposures (Cmax and AUC) are similar between women with normal hepatic function and women with mild hepatic impairment. Elagolix exposures in women with moderate and severe hepatic impairment are approximately 3-fold and 7-fold, respectively, of exposures from women with normal hepatic function.
Compared to women with normal liver function, those with moderate hepatic impairment had approximately 3-fold higher elagolix exposures and those with severe hepatic impairment had approximately 7-fold higher elagolix exposures. Because of these increased exposures and risk for bone loss: Elagolix 150 mg once daily is recommended for women with moderate hepatic impairment (Child-Pugh B) with the duration of treatment limited to 6 months. Use of elagolix 200 mg twice daily is not recommended for women with moderate hepatic impairment. Elagolix is contraindicated in women with severe hepatic impairment (Child-Pugh C).

[6] = tested on: women treated in Studies EM-1 and EM-2; assay: Suicidal ideation, suicidal behavior and mood disorders in Studies EM-1 and EM-2; type: in vivo, human
From the text: Patients with depressive symptoms should be evaluated to determine whether the risks of continued therapy outweigh the benefits. Patients with new or worsening depression, anxiety or other mood changes should be referred to a mental health professional, as appropriate. Patients with suicidal ideation and behavior should seek immediate medical attention. Benefits and risks of continuing elagolix should be revaluated if such events occur and optionally, elagolix should be stopped with worsening or serious depression, anxiety, mood changes or suicidal ideation.
In the placebo-controlled trials (Studies EM-1 and EM-2), elagolix was associated with adverse mood changes, particularly in those with a history of depression.

[7] = tested on: premenopausal women with endometriosis with associated pain; assay: Studies EM-I and EM-II: dysmenorrhea scores and Numeric Rating Scale (NRS) pain; type: in vivo, human
From the text: Women in these studies also provided a daily self-assessment of their endometriosis pain using the Numeric Rating Scale (NRS), on a scale ranging from 0 (no pain) to 10 (worst pain ever).

endometrium = assay: Endometrial biopsies in Study EM-I and its extension; type: in vivo, human; details: Month 6 and Month 12
Description: Endometrial biopsies were performed in subjects in Study EM-I and its extension at Month 6 and Month 12.

[8] = tested on: women treated in Studies EM-I and EM-II; assay: Adverse reactions in Studies EM-I and EM-II; type: in vivo, human; details: for Percentage of Patients with Amenorrhoea / Percentage of Patients with Anxiety / Percentage of Patients with Arthralgia / Percentage of Patients with Headache / Percentage of Patients with Hot Flush / Percentage of Patients with Insomnia / Percentage of Patients with Nasopharyngitis / Percentage of Patients with Nausea / Percentage of Patients with Sinusitis / Percentage of Patients with Upper Respiratory Tract Infection: Studies EM-I and EM-II; for discontinuations due to hot flush / discontinuations due to nausea / patients who discontinued therapy due to adverse reactions: EM-I and EM-II
From the text: The population age range was 18-49 years old. Women who completed six months of treatment and met eligibility criteria continued treatment in two blinded six-month extension studies, for a total treatment duration of up to 12 months.

rats = assay: 2-year carcinogenicity study in rats; type: in vivo; details: rat
From the text: The rat tumors were identified as being species-specific and of negligible relevance to humans. This conclusion is based on a follow-on thyroid and hepatic effects-related investigative study performed to document the possibility that thyroid and liver tumors may be specific to rat and occurred via induction of hepatic drug metabolizing enzymes at the high dose.

QTc interval = assay: Thorough QT study; type: in vivo, human; details: up to 1200 mg; 17- to 23-fold therapeutic concentrations; active control moxifloxacin 400 mg
Description: The effect of elagolix (up to 1200 mg) on QTc interval was evaluated in an active-controlled (moxifloxacin 400 mg) thorough QT study.

estradiol = assay: Estradiol suppression in the Phase 3 studies in women with endometriosis; type: in vivo, human; details: 150 mg QD, partial suppression
[9] = Ketoconazole 400 mg once daily, N 11
[10] = Rifampin 600 mg single dose, N 12

Chain of efflux transporter P-glycoprotein (P-gp) (P08183 whole entry): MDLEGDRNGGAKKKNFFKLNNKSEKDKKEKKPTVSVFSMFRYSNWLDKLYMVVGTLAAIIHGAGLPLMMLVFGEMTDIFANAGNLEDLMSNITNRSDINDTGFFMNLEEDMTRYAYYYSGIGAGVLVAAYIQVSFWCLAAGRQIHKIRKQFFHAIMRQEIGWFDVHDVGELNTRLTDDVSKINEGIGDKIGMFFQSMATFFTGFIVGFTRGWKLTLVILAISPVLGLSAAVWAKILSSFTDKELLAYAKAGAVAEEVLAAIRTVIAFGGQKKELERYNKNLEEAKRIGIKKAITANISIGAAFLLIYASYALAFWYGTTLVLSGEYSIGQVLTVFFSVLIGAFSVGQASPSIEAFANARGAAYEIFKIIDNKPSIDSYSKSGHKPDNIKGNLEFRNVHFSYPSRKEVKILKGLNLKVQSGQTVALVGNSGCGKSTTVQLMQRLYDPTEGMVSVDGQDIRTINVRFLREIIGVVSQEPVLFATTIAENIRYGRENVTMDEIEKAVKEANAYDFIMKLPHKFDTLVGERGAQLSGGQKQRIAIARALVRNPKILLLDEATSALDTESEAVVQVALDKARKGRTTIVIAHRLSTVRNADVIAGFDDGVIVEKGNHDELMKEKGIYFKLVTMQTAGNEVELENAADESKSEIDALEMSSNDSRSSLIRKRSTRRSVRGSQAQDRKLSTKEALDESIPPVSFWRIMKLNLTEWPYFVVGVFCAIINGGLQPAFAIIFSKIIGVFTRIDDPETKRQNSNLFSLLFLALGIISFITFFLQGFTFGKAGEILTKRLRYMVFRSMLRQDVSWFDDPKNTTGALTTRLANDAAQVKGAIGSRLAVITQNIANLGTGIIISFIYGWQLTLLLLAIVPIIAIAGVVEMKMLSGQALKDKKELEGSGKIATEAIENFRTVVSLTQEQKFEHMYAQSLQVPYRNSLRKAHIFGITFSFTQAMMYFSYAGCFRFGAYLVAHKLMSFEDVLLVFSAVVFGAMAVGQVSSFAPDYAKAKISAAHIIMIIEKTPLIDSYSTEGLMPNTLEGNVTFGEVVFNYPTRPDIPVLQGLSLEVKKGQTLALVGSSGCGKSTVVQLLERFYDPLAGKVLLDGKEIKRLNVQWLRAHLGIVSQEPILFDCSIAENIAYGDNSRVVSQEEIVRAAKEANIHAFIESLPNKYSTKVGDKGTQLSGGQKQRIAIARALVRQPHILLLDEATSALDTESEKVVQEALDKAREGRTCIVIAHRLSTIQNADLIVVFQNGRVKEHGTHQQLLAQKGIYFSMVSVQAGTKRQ

**Q.** Which “substrate of P-gp” value [1] does the source give for `COc1cccc(-c2c(C)n(Cc3c(F)cccc3C(F)(F)F)c(=O)n(C[C@H](NCCCC(=O)O)c3ccccc3)c2=O)c1F` [Compound A, 4-((R)-2-[5-(2-fluoro-3-methoxy-phenyl)-3-(2-fluoro-6-trifluoromethyl-benzyl)-4-methyl-2,6-dioxo-3,6-dihydro-2H-pyrimidin-1-yl]-1-phenyl-ethylamino)-butyric acid] here?
**A.** substrate

**Q.** And the “inhibition of efflux transporter P-glycoprotein (P-gp)” value ([1]; at 200 mg BID or higher)?
**A.** inhibitor

**Q.** What about the “AUC Ratio (co-administration vs elagolix alone)” value (“AUC Ratio” for short) [2, 9] of the same molecule?
**A.** 2.20

**Q.** What about the “Cmax Ratio (co-administration vs elagolix alone)” value (from here on “Cmax Ratio”) [2, 9] of the same molecule?
**A.** 1.77

**Q.** What about the “AUC Ratio” value ([2]; Rifampin 600 mg once daily) of the same molecule?
**A.** 1.65

**Q.** What about the “Cmax Ratio” value ([2]; Rifampin 600 mg once daily) of the same molecule?
**A.** 2.00

**Q.** And the “AUC Ratio” value [2, 10]?
**A.** 5.58

**Q.** And the “Cmax Ratio” value [2, 10]?
**A.** 4.37

**Q.** What about the “direction of the change in AUC of elagolix” value ([2]; concomitant rifampin) of the same molecule?
**A.** ↑ elaolix

**Q.** And the “Major route of elimination” value [3]?
**A.** Hepatic metabolism

**Q.** What about the “elagolix plasma concentrations in pups, % of the mother's plasma concentrations” value ([4]; dams 400 mg/kg daily in diet, non-restricted feeding group) of the same molecule?
**A.** approximately 1%

**Q.** And the “elagolix plasma concentrations in pups” value ([4]; dams 400 mg/kg daily in diet, restricted feeding litters, post natal day 10 and 20)?
**A.** not measurable

**Q.** And the secretion in milk ([4]; listed as elagolix)?
**A.** secreted minimally via milk; also recorded: minimally secreted in milk

**Q.** And the “exposures (Cmax and AUC) vs normal hepatic function” value ([5]; mild hepatic impairment)?
**A.** similar

**Q.** And the “exposures vs normal hepatic function” value ([5]; moderate hepatic impairment)?
**A.** approximately 3 fold

**Q.** And the “exposures vs normal hepatic function” value ([5]; severe hepatic impairment, listed as Elagolix)?
**A.** ~7 fold

**Q.** And the “exposures vs normal hepatic function” value ([5]; severe hepatic impairment, listed as elagolix)?
**A.** approximately 7 fold

**Q.** What about the “Completed Suicide, %” value ([6]; 150 mg Once Daily (N = 475)) of the same molecule?
**A.** 0.2%

**Q.** What about the “Depressed Mood, depression, depressive symptoms and or tearfulness, %” value ([6]; 150 mg Once Daily (N = 475)) of the same molecule?
**A.** 2.7%

**Q.** What about the “Mood altered, mood swings, %” value ([6]; 150 mg Once Daily (N = 475)) of the same molecule?
**A.** 5.7%

**Q.** What about the “Suicidal ideation, %” value ([6]; 150 mg Once Daily (N = 475)) of the same molecule?
**A.** 0.2%

**Q.** What about the “Depressed Mood, depression, depressive symptoms and or tearfulness, %” value ([6]; 200 mg Twice Daily (N = 477)) of the same molecule?
**A.** 6.1%

**Q.** What about the “Mood altered, mood swings, %” value ([6]; 200 mg Twice Daily (N = 477)) of the same molecule?
**A.** 5.2%

**Q.** What about the “Suicidal ideation, %” value ([6]; 200 mg Twice Daily (N = 477)) of the same molecule?
**A.** 0.2%

**Q.** And the “incidence of depression and mood changes” value ([6]; vs placebo)?
**A.** higher incidence of depression and mood changes compared to placebo

**Q.** What about the “Numeric Rating Scale (NRS) endometriosis pain scores” value ([7]; 150 mg QD and 200 mg BID, vs placebo at Month 3 and Month 6) of the same molecule?
**A.** highly statistically (p<0.001) significant reduction in NRS scores

**Q.** And the “mean decreases from Baseline in dysmenorrhea scores” value ([7]; both elagolix treatment groups, Month 1 through Month 6, vs placebo)?
**A.** statistically significantly greater than placebo

**Q.** What about the endometrial biopsy findings (endometrium) of the same molecule?
**A.** no abnormal biopsy findings post-baseline

**Q.** And the “Percentage of Patients with Amenorrhoea” value ([8]; 150 mg QD, N = 475)?
**A.** 4%

**Q.** And the “Percentage of Patients with Anxiety” value ([8]; 150 mg QD, N = 475)?
**A.** 3%

**Q.** What about the “Percentage of Patients with Arthralgia” value ([8]; 150 mg QD, N = 475) of the same molecule?
**A.** 3%

**Q.** What about the “Percentage of Patients with Headache” value ([8]; 150 mg QD, N = 475) of the same molecule?
**A.** 17%

**Q.** What about the “Percentage of Patients with Hot Flush” value ([8]; 150 mg QD, N = 475) of the same molecule?
**A.** 23%

**Q.** And the “Percentage of Patients with Insomnia” value ([8]; 150 mg QD, N = 475)?
**A.** 6%

**Q.** What about the “Percentage of Patients with Nasopharyngitis” value ([8]; 150 mg QD, N = 475) of the same molecule?
**A.** 6%

**Q.** What about the “Percentage of Patients with Nausea” value ([8]; 150 mg QD, N = 475) of the same molecule?
**A.** 11%

**Q.** What about the “Percentage of Patients with Sinusitis” value ([8]; 150 mg QD, N = 475) of the same molecule?
**A.** 5%

**Q.** What about the “Percentage of Patients with Upper Respiratory Tract Infection” value ([8]; 150 mg QD, N = 475) of the same molecule?
**A.** 6%

**Q.** What about the “Percentage of Patients with Amenorrhoea” value ([8]; 200 mg BID, N = 477) of the same molecule?
**A.** 7%

**Q.** And the “Percentage of Patients with Anxiety” value ([8]; 200 mg BID, N = 477)?
**A.** 5%

**Q.** What about the “Percentage of Patients with Arthralgia” value ([8]; 200 mg BID, N = 477) of the same molecule?
**A.** 5%

**Q.** And the “Percentage of Patients with Headache” value ([8]; 200 mg BID, N = 477)?
**A.** 20%

**Q.** What about the “Percentage of Patients with Hot Flush” value ([8]; 200 mg BID, N = 477) of the same molecule?
**A.** 45%

**Q.** And the “Percentage of Patients with Insomnia” value ([8]; 200 mg BID, N = 477)?
**A.** 9%

**Q.** What about the “Percentage of Patients with Nasopharyngitis” value ([8]; 200 mg BID, N = 477) of the same molecule?
**A.** 6%

**Q.** And the “Percentage of Patients with Nausea” value ([8]; 200 mg BID, N = 477)?
**A.** 16%

**Q.** And the “Percentage of Patients with Sinusitis” value ([8]; 200 mg BID, N = 477)?
**A.** 6%

**Q.** And the “Percentage of Patients with Upper Respiratory Tract Infection” value ([8]; 200 mg BID, N = 477)?
**A.** 4%

**Q.** What about the “discontinuations due to hot flush” value ([8]; 150 mg QD) of the same molecule?
**A.** 0.8%

**Q.** What about the “discontinuations due to nausea” value ([8]; 150 mg QD) of the same molecule?
**A.** 0.8%

**Q.** And the “patients who discontinued therapy due to adverse reactions” value ([8]; 150 mg QD)?
**A.** 5.5%

**Q.** And the “discontinuations due to hot flush” value ([8]; 200 mg BID)?
**A.** 2.5%

**Q.** And the “discontinuations due to nausea” value ([8]; 200 mg BID)?
**A.** 1.5%

**Q.** And the “patients who discontinued therapy due to adverse reactions” value ([8]; 200 mg BID)?
**A.** 9.6%

**Q.** What about the “Events of hot flushes” value ([8]; majority assessed as mild to moderate) of the same molecule?
**A.** dose-dependent

**Q.** And the “margin of safety with respect to 200 mg BID in women” value (rats; both, in vivo, 2 years)?
**A.** 13 fold

**Q.** And the “tumors, 2-year carcinogenicity study” value (rats; high dose)?
**A.** increase in thyroid (male and female) and liver (males only) tumors

**Q.** What about the “Effect on QTc interval” value (QTc interval) of the same molecule?
**A.** does not prolong the QTc interval

**Q.** And the “suppression of estradiol to” value (estradiol)?
**A.** approximately 50 pg/mL

From patent publication US12102637B2, “Pharmaceutical formulations for treating endometriosis, uterine fibroids, polycystic ovary syndrome or adenomyosis” (AbbVie Inc., priority 2017, dated 2024)
